The source of these data is US7208270B2, “Method for diagnosing a person having multiple sclerosis” (priority 2001, dated 2007).

Entries after “also recorded” stand apart in the source; their conditions may differ.

In assay [1] the test system is SARG-1 over-expressing PC12 cells. In words: Viability of SARG-1 over-expressing PC12 cultures treated with kinase inhibitors. As to conditions: staurosporine at 100 nM, in comparison to vector control cultures. Type of assay: cell-based, rat. From the text: (§1) To examine the expression and function of SARG-1 in a neural cell culture system, standard molecular biology techniques (Sanbrook et al, 1989) were used to clone the rat SARG-1 coding sequence (rSARG-1479) into the pIRESII-EGFP eukaryotic expression vector (Clontech) under the control of a CMV promoter which bicistroni-cally translates through an internal IRES sequence both SARG-1477 and enhanced green fluorescent protein. The rat pheochromocytoma PC12 cell line was maintained in DMEM supplemented with 8% horse serum, 8% fetal calf serum and an antibiotic-antimycotic mix containing 100 units/ml penicillin, 100 μg/ml streptomycin, and 0.25 μg/ml amphotericin B (all from GibcoBRL) in a fully humidified air atmosphere containing 5% CO2 at 37° C. Semi-confluent cultures in 6-well plates were transfected with pIRES2-EGFP-SARG-1 or empty vector for 18 h in the presence of the uptake enhancing cationic lipid mix pFx1 (Invitrogen) at a 6:1 lipid to DNA ratio in serum-free opti-MEN (Gibco). Stable transfectant colonies were picked from separate wells after selection in […] geneticin (Gibco) and clones with similar EGFP fluorescence expanded from independent transfections.
(§2) Over-expression of SARG-1 also enhances terminal differentiation of PC12 cells induced by nerve growth factor (FIG. 14).

Assay [2] concerns PC12 cells transfected with empty vector. In words: Vector control PC12 cultures treated with staurosporine. The conditions noted are these: 100 nM. It is filed as cell-based, rat.
Description: as §1, §2

The subject of assay [3] is SARG-1 over-expressing PC12 cells. In words: Flow cytometrical cell cycle analysis of transfected PC12 cells. Type of assay: cell-based, rat. The conditions noted are these: 100 nM, 24 h, ethanol fixed cells.
Description: as §2

The test system of a further assay is PC12 cells. As to conditions: cited from earlier work.

For the compound `CN(C)CCCn1cc(C2=C(c3c[nH]c4ccccc34)C(=O)NC2=O)c2ccccc21` [Bisindolylmaleimide I], in assay [1], the “effect on viability / cell death” value is “No similar effects”.
For the compound `COc1cccc(-c2cc(=O)c3ccccc3o2)c1N` [PD 98059], the “effect on viability / cell death” value in assay [1] is listed as “No similar effects”.
The same measure, in the same setting: next, `COC(=O)[C@@]1(O)C[C@H]2O[C@]1(C)n1c3ccccc3c3c4c(c5c6ccccc6n2c5c31)C(=O)NC4` [X252a]: “No similar effects”.
As to `CN[C@@H]1C[C@H]2O[C@@](C)([C@@H]1OC)n1c3ccccc3c3c4c(c5c6ccccc6n2c5c31)C(=O)NC4` [staurosporine], the “effect on viability / cell death” value in assay [1] is given as “rapid loss in viability”. For the same compound, the “effect on vector control cultures” value in assay [2] is on record as “neurite outgrowth”. Further, the “flow cytometry: sub G0/G1 peak / loss of DNA characteristic of apoptosis” value in assay [3] is listed as “sub G0/G1 peak characteristic for the induction of apoptosis is seen only in SARG-1 over-expressing cells; also recorded: loss of DNA from ethanol fixed cells”. The concentration inducing apoptosis result with PC12 cells (Fu et al, 1999) is on record as “above 1 mM”. Also, the “concentration inducing neurite outgrowth” value in the assay with PC12 cells (Hashimoto and Hagino, 1989) is recorded as 100 nM.
